Here are results for 11 compounds from patent publication US10004701B2, “Methods and compositions for treating infection” (UNIVERSITY OF ROCHESTER, priority 2012, dated 2018).

Where a name gives a salt, the structure may show the parent alone. Read-outs that look alike come from different tables or passages of the source.

What all share (experiment): AK assay 384-well format, Prestwick library screening
Assay [1] concerns E. faecium. It is filed as cell-based, Enterococcus faecium. The settings on record: 50 μM final drug concentration; for fold induction at 50 µM: Enterococcus faecium, 3 h; for AK-based Prestwick Library Screening Results, E. faecium (fold increase in extracellular AK activity): planktonic.
Assay [2] deals with S. aureus strain USA300-0114. It is filed as cell-based, Staphylococcus aureus. The settings on record: 50 μM final drug concentration; for fold induction at 50 µM: Staphylococcus aureus, USA300, 3 h; for AK-based Prestwick Library Screening Results, S. aureus (fold increase in extracellular AK activity): planktonic.
Assay [3] has as its system K. pneumoniae. The assay is classed as cell-based, Klebsiella pneumoniae. The settings on record: 50 μM final drug concentration; for fold induction at 50 µM: Klebsiella pneumoniae, 3 h; for AK-based Prestwick Library Screening Results, K. pneumoniae (fold increase in extracellular AK activity): planktonic.
The test system of assay [4] is A. baumannii strain 98-37-09. It is filed as cell-based, Acinetobacter baumannii. The settings on record: 50 μM final drug concentration; for fold induction at 50 µM: Acinetobacter baumannii, 983709, 3 h; for AK-based Prestwick Library Screening Results, A. baumannii (fold increase in extracellular AK activity): planktonic.
Assay [5] deals with P. aeruginosa. It is filed as cell-based, Pseudomonas aeruginosa. The settings on record: 50 μM final drug concentration; for fold induction at 50 µM: Pseudomonas aeruginosa, 3 h; for AK-based Prestwick Library Screening Results, P. aeruginosa (fold increase in extracellular AK activity): planktonic.
Assay [6] concerns E. cloacae. It is filed as cell-based, Enterobacter cloacae. The note with it: 50 μM final drug concentration; for fold induction at 50 µM: Enterobacter cloacae, 3 h; for AK-based Prestwick Library Screening Results, E. cloacae (fold increase in extracellular AK activity): planktonic.
The test system of assay [7] is E. coli. The assay is classed as cell-based, Escherichia coli. The settings on record: 50 μM final drug concentration; for fold induction at 50 µM: Escherichia coli, 3 h; for AK-based Prestwick Library Screening Results, E. coli (fold increase in extracellular AK activity): planktonic.
Where [8] appears, read: planktonic E. faecium, 384-well, cutoff for positive-scoring molecules 3-fold increase, read-out: AK-based Prestwick Library Screening Results: E. faecium (increase in extracellular AK activity).
Setting [9] is: planktonic S. aureus, 384-well, cutoff for positive-scoring molecules 3-fold increase, read-out: AK-based Prestwick Library Screening Results: S. aureus (increase in extracellular AK activity).
Setting [10] is: planktonic K. pneumoniae, 384-well, cutoff for positive-scoring molecules 3-fold increase, read-out: AK-based Prestwick Library Screening Results: K. pneumoniae (increase in extracellular AK activity).
Setting [11] is: planktonic A. baumannii, 384-well, cutoff for positive-scoring molecules 3-fold increase, read-out: AK-based Prestwick Library Screening Results: A. baumannii (increase in extracellular AK activity).
[12] abbreviates: planktonic P. aeruginosa, 384-well, cutoff for positive-scoring molecules 3-fold increase, read-out: AK-based Prestwick Library Screening Results: P. aeruginosa (increase in extracellular AK activity).
Where [13] appears, read: planktonic E. cloacae, 384-well, cutoff for positive-scoring molecules 3-fold increase, read-out: AK-based Prestwick Library Screening Results: E. cloacae (increase in extracellular AK activity).
The mark [14] stands for this setting: planktonic E. coli, 384-well, cutoff for positive-scoring molecules 3-fold increase, read-out: AK-based Prestwick Library Screening Results: E. coli (increase in extracellular AK activity).
Setting [15] is: 384-well format, cutoff for positive-scoring molecules 3-fold increase, read-out: AK-based Prestwick Library Screening Results, E. faecium (increase in extracellular AK activity).
[16] abbreviates: 384-well format, cutoff for positive-scoring molecules 3-fold increase, read-out: AK-based Prestwick Library Screening Results, S. aureus (increase in extracellular AK activity).
Setting [17] is: 384-well format, cutoff for positive-scoring molecules 3-fold increase, read-out: AK-based Prestwick Library Screening Results, K. pneumoniae (increase in extracellular AK activity).
Where [18] appears, read: 384-well format, cutoff for positive-scoring molecules 3-fold increase, read-out: AK-based Prestwick Library Screening Results, A. baumannii (increase in extracellular AK activity).
Where [19] appears, read: 384-well format, cutoff for positive-scoring molecules 3-fold increase, read-out: AK-based Prestwick Library Screening Results, P. aeruginosa (increase in extracellular AK activity).
Setting [20] is: 384-well format, cutoff for positive-scoring molecules 3-fold increase, read-out: AK-based Prestwick Library Screening Results, E. cloacae (increase in extracellular AK activity).
The mark [21] stands for this setting: 384-well format, cutoff for positive-scoring molecules 3-fold increase, read-out: AK-based Prestwick Library Screening Results, E. coli (increase in extracellular AK activity).
[22] abbreviates: cutoff for positive 3-fold increase.
Setting [23] is: cutoff for positive-scoring molecules 3-fold increase, read-out: AK-based Prestwick Library Screening Results, E. faecium (fold increase in extracellular AK activity).
Setting [24] is: cutoff for positive-scoring molecules 3-fold increase, read-out: AK-based Prestwick Library Screening Results, S. aureus (fold increase in extracellular AK activity).
[25] abbreviates: cutoff for positive-scoring molecules 3-fold increase, read-out: AK-based Prestwick Library Screening Results, K. pneumoniae (fold increase in extracellular AK activity).
The mark [26] stands for this setting: cutoff for positive-scoring molecules 3-fold increase, read-out: AK-based Prestwick Library Screening Results, A. baumannii (fold increase in extracellular AK activity).
Where [27] appears, read: cutoff for positive-scoring molecules 3-fold increase, read-out: AK-based Prestwick Library Screening Results, P. aeruginosa (fold increase in extracellular AK activity).
Setting [28] is: cutoff for positive-scoring molecules 3-fold increase, read-out: AK-based Prestwick Library Screening Results, E. cloacae (fold increase in extracellular AK activity).
Where [29] appears, read: cutoff for positive-scoring molecules 3-fold increase, read-out: AK-based Prestwick Library Screening Results, E. coli (fold increase in extracellular AK activity).
Where [30] appears, read: 384-well format, cutoff for positive-scoring molecules 3-fold increase.

In the case of `O=C(CCCN1CCC2(CC1)C(=O)NCN2c1ccccc1)c1ccc(F)cc1` [Spiperone], the fold induction at 50 µM in assay [1] (setting [8]) stood at 1.2; in assay [2] (setting [9]), 1; in assay [3] (setting [10]), 0.9; in assay [4] (setting [11]) it was 1.2; in assay [5] (setting [12]), 1.2; in assay [6] (setting [13]) it was 1.3. The fold induction at 50 µM in assay [7] (setting [14]) was 1.3.
Turning to `CC(=O)S[C@@H]1CC2=CC(=O)CC[C@]2(C)[C@H]2CC[C@@]3(C)[C@@H](CC[C@@]34CCC(=O)O4)[C@H]12` [Spironolactone], the fold induction at 50 µM in assay [1] (setting [15]) was 1; in assay [2] (setting [16]), 1.2; in assay [3] (setting [17]) it was 1; in assay [4] (setting [18]), 1.1; in assay [5] (setting [19]), 1; in assay [6] (setting [20]), 1.3. The fold induction at 50 µM in assay [7] (setting [21]) came to 1.4.
As to `C[N+]1(C)CCC[C@H]1C(=O)[O-].Cl` [Stachydrine hydrochloride], the “AK-based Prestwick Library Screening Results, E. faecium (fold increase in extracellular AK activity)” value in assay [1] (setting [22]) is reported as 1.0. In addition, the “AK-based Prestwick Library Screening Results, S. aureus (fold increase in extracellular AK activity)” value in assay [2] (setting [22]) came out at 1.0. For the same compound, the “AK-based Prestwick Library Screening Results, K. pneumoniae (fold increase in extracellular AK activity)” value in assay [3] (setting [22]) is listed as 1.1. Moreover, in assay [4] (setting [22]), the “AK-based Prestwick Library Screening Results, A. baumannii (fold increase in extracellular AK activity)” value was 1.4. Moreover, the “AK-based Prestwick Library Screening Results, P. aeruginosa (fold increase in extracellular AK activity)” value in assay [5] (setting [22]) is reported as 1.2. For the same compound, the “AK-based Prestwick Library Screening Results, E. cloacae (fold increase in extracellular AK activity)” value in assay [6] (setting [22]) is reported as 1.5. For the same compound, the “AK-based Prestwick Library Screening Results, E. coli (fold increase in extracellular AK activity)” value in assay [7] (setting [22]) worked out at 1.4.
For `[H]/N=C(/N)N[C@H]1[C@H](O)[C@@H](O)[C@H](O[C@@H]2O[C@@H](C)[C@](O)(C=O)[C@H]2O[C@@H]2O[C@@H](CO)[C@H](O)[C@@H](O)[C@@H]2NC)[C@@H](N/C(N)=N\[H])[C@@H]1O` [Streptomycin sulfate], the fold induction at 50 µM was 0.9 in assay [1] (setting [8]); 0.4 in assay [2] (setting [9]); 0.3 in assay [3] (setting [10]); 0.4 in assay [4] (setting [11]); 0.4 in assay [5] (setting [12]); 0.3 in assay [6] (setting [13]). Further, the fold induction at 50 µM in assay [7] (setting [14]) came to 0.5.
For `C[C@]12CC[C@H]3[C@@H](CC[C@]4(O)C[C@@H](O)CC[C@]34C=O)[C@@]1(O)CC[C@@H]2C1=CC(=O)OC1` [Strophanthidin], the fold induction at 50 µM in assay [1] ([…], read-out: AK-based Prestwick Library Screening Results, E. faecium (fold increase in extracellular AK activity)) turned out to be 1; in assay [2] ([…], read-out: AK-based Prestwick Library Screening Results, S. aureus (fold increase in extracellular AK activity)), 1.3; in assay [3] ([…], read-out: AK-based Prestwick Library Screening Results, K. pneumoniae (fold increase in extracellular AK activity)) it was 1.1; in assay [4] ([…], read-out: AK-based Prestwick Library Screening Results, A. baumannii (fold increase in extracellular AK activity)), 1.3; in assay [5] ([…], read-out: AK-based Prestwick Library Screening Results, P. aeruginosa (fold increase in extracellular AK activity)), 1.1; in assay [6] ([…], read-out: AK-based Prestwick Library Screening Results, E. cloacae (fold increase in extracellular AK activity)) it was 1.3. For the same compound, in assay [7] ([…], read-out: AK-based Prestwick Library Screening Results, E. coli (fold increase in extracellular AK activity)), the fold induction at 50 µM was 1.4.
For the compound `C[C@@H]1O[C@@H](O[C@H]2C[C@@H](O)[C@]3(CO)[C@H]4[C@H](O)C[C@]5(C)[C@@H](C6=CC(=O)OC6)CC[C@]5(O)[C@@H]4CC[C@]3(O)C2)[C@H](O)[C@H](O)[C@H]1O.O.O.O.O.O.O.O.O` [Strophantine octahydrate], the “AK-based Prestwick Library Screening Results, E. faecium (fold increase in extracellular AK activity)” value in assay [1] ([…]) was determined as 1.0. The “AK-based Prestwick Library Screening Results, S. aureus (fold increase in extracellular AK activity)” value in assay [2] ([…]) is 1.1. In addition, in assay [3] ([…]), the “AK-based Prestwick Library Screening Results, K. pneumoniae (fold increase in extracellular AK activity)” value stood at 0.9. In assay [4] ([…]), the “AK-based Prestwick Library Screening Results, A. baumannii (fold increase in extracellular AK activity)” value amounted to 1.2. The “AK-based Prestwick Library Screening Results, P. aeruginosa (fold increase in extracellular AK activity)” value in assay [5] ([…]) is recorded as 1.1. Further, in assay [6] ([…]), the “AK-based Prestwick Library Screening Results, E. cloacae (fold increase in extracellular AK activity)” value worked out at 1.7. The “AK-based Prestwick Library Screening Results, E. coli (fold increase in extracellular AK activity)” value in assay [7] ([…]) came to 1.2.
For `O=C(O)CCC(=O)Nc1ccc(S(=O)(=O)Nc2nccs2)cc1` [Succinylsulfathiazole], the fold induction at 50 µM came to 1 in assay [1] (setting [23]); 1.3 in assay [2] (setting [24]); 1.1 in assay [3] (setting [25]); 1.3 in assay [4] (setting [26]); 1.1 in assay [5] (setting [27]); 1.4 in assay [6] (setting [28]). In addition, the fold induction at 50 µM in assay [7] (setting [29]) came out at 1.4.
Regarding `Nc1ccc(S(=O)(=O)NC(=O)c2ccccc2)cc1` [Sulfabenzamide], the fold induction at 50 µM in assay [1] (setting [23]) was 1.1; in assay [2] (setting [24]), 1.2; in assay [3] (setting [25]), 1.1; in assay [4] (setting [26]) it was 2.8; in assay [5] (setting [27]), 1.1; in assay [6] (setting [28]), 1.6. Besides, the fold induction at 50 µM in assay [7] (setting [29]) was 1.1.
As for `CC(=O)[N-]S(=O)(=O)c1ccc(N)cc1.O.[Na+]` [Sulfacetamide sodic hydrate], the “AK-based Prestwick Library Screening Results, E. faecium (increase in extracellular AK activity)” value in assay [1] (setting [30]) stood at 0.9. The “AK-based Prestwick Library Screening Results, S. aureus (increase in extracellular AK activity)” value in assay [2] (setting [30]) is on record as 0.7. Also, in assay [3] (setting [30]), the “AK-based Prestwick Library Screening Results, K. pneumoniae (increase in extracellular AK activity)” value is recorded as 0.5. In assay [4] (setting [30]), the “AK-based Prestwick Library Screening Results, A. baumannii (increase in extracellular AK activity)” value came out at 2.2. For the same compound, the “AK-based Prestwick Library Screening Results, P. aeruginosa (increase in extracellular AK activity)” value in assay [5] (setting [30]) is 0.5. The “AK-based Prestwick Library Screening Results, E. cloacae (increase in extracellular AK activity)” value in assay [6] (setting [30]) is listed as 0.7. Besides, the “AK-based Prestwick Library Screening Results, E. coli (increase in extracellular AK activity)” value in assay [7] (setting [30]) came to 0.6.
As for `Nc1ccc(S(=O)(=O)Nc2ccc(Cl)nn2)cc1` [Sulfachloropyridazine], the fold induction at 50 µM in assay [1] (setting [23]) was 1; in assay [2] (setting [24]), 1.1; in assay [3] (setting [25]), 1.1; in assay [4] (setting [26]) it was 2.1; in assay [5] (setting [27]), 1; in assay [6] (setting [28]) it was 1.5. Besides, in assay [7] (setting [29]), the fold induction at 50 µM is 1.
For the compound `Nc1ccc(S(=O)(=O)Nc2ncccn2)cc1` [Sulfadiazine], the fold induction at 50 µM in assay [1] (setting [15]) was determined as 0.8; in assay [2] (setting [16]), 0.7; in assay [3] (setting [17]) it was 0.7; in assay [4] (setting [18]), 1.2; in assay [5] (setting [19]), 0.8; in assay [6] (setting [20]), 0.9. In addition, in assay [7] (setting [21]), the fold induction at 50 µM worked out at 1.
